In US9598383B2, “Reactive oxygen species-based prodrugs” (The Regents of the University of California, priority 2013, dated 2017):

Assays:
[1] = Hydrolytic stability of prodrugs in buffer and with biologically relevant nucleophiles, analytical HPLC
Experimental: Initially, an authentic HPLC trace was obtained of proIBU and proMMPi, and a second trace was obtained after incubating in buffer (100 mM TRIS-HCl, pH 7.4) for 24 h at 37° C. Each prodrug was incubated in the same conditions, with the addition of 20 equivalents of lysine, serine and glutathione, all in distinct trials.
All compounds were initially dissolved in DMSO and further diluted with specified buffer. Injections consisted of 100 μl, of a 1 mM solution.

COX-1 = assay: COX inhibition, commercially available fluorescent assay (COX-1); type: biochemical; details: COX-1 isoform
Experimental: The efficacy of the prodrug to inhibit its target was also evaluated. For proIBU a commercially available fluorescent assay was utilized. ProIBU was tested against both isoforms of the COX enzyme. […] Table 1 and FIG. 3.

[2] = H2O2-triggered deprotection of model compounds (conversion to acid), analytical HPLC; type: physicochemical; details: for percent conversion to acid: incubation at RT; for deprotection, conversion to the acid: excess of H2O2 (27 equiv) in buffer, after 4 h of incubation
Experimental: To be effective prodrugs must have good water solubility and be rapidly converted to the active drug under the desired stimulus. These two aspects were evaluated first in model systems. […] An authentic HPLC trace of each was obtained and was then compared to a trace obtained after 1 h and 4 h of incubation. […] The stability of each compound was tested at physiological pH (100 mM TRIS-HCl, pH 7.2) as well as in the presence of glutathione (9 equiv).
Injections consisted of 100 μL, of a 50 μM.

[3] = Stability of model compounds in simulated physiological conditions, analytical HPLC; type: physicochemical; details: for stability: HEPES, RT, 24 h; for stability at physiological pH: 100 mM TRIS-HCl; for stability in the presence of glutathione: glutathione (9 equiv)

Row | Structure (SMILES) | hydrolytic stability ([1]; 100 mM TRIS-HCl, pH 7.4, 24 h at 37° C., 20 equivalents of glutathione) | hydrolytic stability ([1]; 100 mM TRIS-HCl, pH 7.4, 24 h at 37° C., 20 equivalents of lysine) | hydrolytic stability ([1]; 100 mM TRIS-HCl, pH 7.4, 24 h at 37° C., 20 equivalents of serine) | hydrolytic stability ([1]; buffer (100 mM TRIS-HCl, pH 7.4), 24 h at 37° C.) | inhibition of COX enzyme (COX-1) | percent conversion to acid ([2]; 1 h) | percent conversion to acid ([2]; 4 h) | stability ([3]; pH 7.2 + GSH (9 equiv)) | stability ([3]; pH 7.2) | stability ([3]; pH 8.0) | deprotection, conversion to the acid [2] | stability at physiological pH ([3]; pH 7.2) | stability in the presence of glutathione [3]
1 | CC(C)Cc1ccc(C(C)C(=O)N2CCSC2=O)cc1 (stereo not drawn) [proIBU, 3-(2-(4-isobutylphenyl)propanoyl)thiazolidin-2-one] | > 99% | > 99% | > 99% | > 99% | little to no inhibition | – | – | – | – | – | – | – | –
2 | O=C1OCCN1C(=O)c1ccccc1 [Compound 1, 3-benzoyloxazolidin-2-one] | – | – | – | – | – | 14.6% | 25.6% | >99% | >99% | >99% | – | – | –
3 | O=C(Cc1ccccc1)N1CCSC1=O [Compound 6, 3-(2-phenylacetyl)thiazolidin-2-one] | – | – | – | – | – | 23.3% | 67.8% | >99% | >99% | >99% | – | – | –
4 | O=C1SCCN1C(=O)c1ccccc1 [Compound 2, 3-benzoylthiazolidin-2-one] | – | – | – | – | – | 13.6% | 37.8% | >99% | 88.6% | 82.5% | – | – | –
5 | O=C(c1ccccc1)N1CCOC1=S [Compound 3, Phenyl(2-thioxooxazolidin-3-yl)methanone] | – | – | – | – | – | 44.7% | >99% | 59.5% | 95.5% | 41.2% | full deprotection | poorer stability | poorer stability
6 | O=C(c1ccccc1)N1CCSC1=S [Compound 4, Phenyl(2-thioxothiazolidin-3-yl)methanone] | – | – | – | – | – | 48.5% | >99% | 77.6% | 57.0% | 54.8% | full deprotection | poorer stability | poorer stability
7 | O=C(Cc1ccccc1)N1CCSC1=S [Compound 8, 2-phenyl-1-(2-thioxothiazolidin-3-yl)ethan-1-one] | – | – | – | – | – | 87.6% | >99% | 39.5% | 32.5% | <1% | full deprotection | poorer stability | poorer stability
8 | O=C(Cc1ccccc1)N1CCOC1=O [Compound 5, 3-(2-phenylacetyl)oxazolidin-2-one] | – | – | – | – | – | <1% | <1% | 86.3% | >99% | 94.5% | – | – | –
9 | O=C(Cc1ccccc1)N1CCOC1=S [Compound 7, 2-phenyl-1-(2-thioxooxazolidin-3-yl)ethan-1-one] | – | – | – | – | – | 81.6% | >99% | 45.7% | 54.6% | 24.4% | full deprotection | poorer stability | poorer stability
